Measured values reported in patent US9387198B1 (priority 2015, dated 2016).

Columns and labels:
[1] = Cytotoxicity evaluation by MTT-assay; settings: mouse, mouse fibroblast (3T3) cells
Procedure: (§1) Cytotoxicity evaluation was also carried out against mouse fibroblast (3T3) cell-line by employing MTT-assay.

[2] = molecular target: T1, human serum albumin (HSA) (Homo sapiens, UniProt P02768); assay: Fluorescence-based anti-glycation assay (fructose-mediated glycation of HSA); assay type: biochemical; settings: compared to reference compound rutin
T1 construct: purchased Sigma Aldrich, St. Louis, Mo., USA
Procedure: Prior to incubation, rutin (reference compound) and 6-nitrobenzimidazole derivatives were added to a reaction mixture to a final concentration of 1 mM. DMSO was used as a solvent (final concentration: 10%) in this assay.
Percentage Inhibition=(1−Fluorescence of test compounds/Fluorescence of glycated-HSA)×100 Where, Test compounds=6-Nitrobenzimidazole derivatives

[3] = tested on: rat hepatocytes (CC1-Cell line); assay: Fructose-derived AGE-induced intracellular ROS production (DCFH-DA technique); assay type: cell-based; settings: for effect on ROS production (in words): AGE 200 μg/mL; for Fluorescence (Average), AGE-mediated intracellular ROS production: co-incubated with AGEs 200 μg/mL, 24 hours
Procedure: Procedure of the Assay: Briefly, 6×10^4 cells/mL cells (normal rat hepatocytes: CC1-Cell line) were seeded on a 96-well plate and kept for 24 hours in an incubator, containing 5% CO2 at 37° C. […] Initially the cells were incubated with 10 μM DCFH-DA non fluorescent probe, for 45 mins in the dark environment. […] The control was treated with 0.5% H2O2 just before 1 hour prior to halt the incubation period.
Detection of Fluorescence Intensity: The intensity of fluorescence was measured at an excitation 490 nm and an emission 520 nm, using Spectra Max Spectrophotometer (Applied Biosystems, CA, USA).
Where, Blank=Normal rat hepatocytes Control=Rat hepatocytes treated with 0.5% […] Test compound=6-Nitrobenzimidazole derivative

[4] = tested on: rat hepatocytes (CC1-Cell line); assay: Fructose-derived AGE-mediated diminished growth of hepatocytes (MTT assay); assay type: cell-based; settings: for effect on hepatocytes growth and proliferation (in words) / Percentage Inhibition (remaining growth inhibition of hepatocytes versus normal cells): AGEs 200 μg/mL; for Percentage Inhibition (remaining growth inhibition of hepatocytes versus normal cells): lower = more growth restored; for Absorbance (Average), AGE-mediated diminished growth of the hepatocytes: co-incubated with AGEs 200 μg/mL, 540 nm
Procedure: The mixture was incubated at 37° C. for 12 weeks under dark sterile environment. […] The cells treated with Triton X-100 were used as a blank, while normal cells remain untreated were used as a control.
MTT Assay: Following 24 hours of incubation, the plate was decanted to remove the medium and the cells were washed with 1×PBS. The MTT-dye (50 μL: 2 mg/mL) was then loaded to each well. 200 μL (final reaction volume) was reconstituted by serum free-MEM (Minimum essential media) in a dark environment. The plate was incubated in 5% CO2 containing incubator at 37° C. for the next 4 hours. At the end of the incubation, the medium was removed and the crystals were dissolved by adding 100 μL DMSO into each well.
Measurement of Absorbance: The intensity of purple colored solution was measured at the wavelength of 540 nm, using Spectra Max Spectrophotometer (Applied Biosystems, CA, USA).
Where, Blank=Triton X-100 treated rat hepatocytes Control=Normal rat hepatocytes Test Compound=6-nitrobenzimidazole derivatives

in vitro = settings: mouse
Procedure: as §1

[5] = Rattus norvegicus, Hepatocyte, 24 h, read-out: Percentage Inhibition of AGE-mediated intracellular ROS production

T1 sequence (P02768 25-609): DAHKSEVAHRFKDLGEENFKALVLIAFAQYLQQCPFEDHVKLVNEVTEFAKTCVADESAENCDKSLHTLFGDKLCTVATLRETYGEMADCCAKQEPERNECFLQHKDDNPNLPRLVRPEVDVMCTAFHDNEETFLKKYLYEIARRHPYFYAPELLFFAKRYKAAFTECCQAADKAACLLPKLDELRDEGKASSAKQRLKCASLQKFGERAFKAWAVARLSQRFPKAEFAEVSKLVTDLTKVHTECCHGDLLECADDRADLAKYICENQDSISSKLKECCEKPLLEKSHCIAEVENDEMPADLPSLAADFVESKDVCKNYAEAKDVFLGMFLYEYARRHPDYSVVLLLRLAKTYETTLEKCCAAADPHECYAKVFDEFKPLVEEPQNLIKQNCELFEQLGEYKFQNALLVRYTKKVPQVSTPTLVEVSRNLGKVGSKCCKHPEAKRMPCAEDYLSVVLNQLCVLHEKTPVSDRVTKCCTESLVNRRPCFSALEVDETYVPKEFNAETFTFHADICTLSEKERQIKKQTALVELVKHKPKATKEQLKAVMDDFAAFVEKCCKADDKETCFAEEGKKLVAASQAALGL

With `O=[N+]([O-])c1ccc2nc(-c3cccc(O)c3O)[nH]c2c1` [Compound 1, 3-(6-Nitro-1H-benzimidazol-2-yl)-1,2-benzenediol] the cytotoxicity [1] was 35.9% and the “anti-glycation activity (in words)” value [2] was “significant anti-glycation activity”.

For `O=[N+]([O-])c1ccc2nc(-c3cc(O)ccc3O)[nH]c2c1` [Compound 2, 2-(6-Nitro-1H-benzimidazol-2-yl)-1,4-benzenediol], the cytotoxicity [1] was 21.1% and the “anti-glycation activity (in words)” value [2] was “significant anti-glycation activity”.

With `O=[N+]([O-])c1ccc2nc(-c3ccsc3)[nH]c2c1` [Compound 3, 6-Nitro-2-(3-thienyl)-1H-benzimidazole] the cytotoxicity [1] was 19.7%.

In the case of `O=[N+]([O-])c1ccc2nc(-c3ccc(O)c(O)c3O)[nH]c2c1` [Compound 4, 4-(6-Nitro-1H-benzimidazol-2-yl)-1,2,3-benzenetriol], the cytotoxicity [1] is reported as 9.8%, the inhibition at 24 µM [3, 5] is reported as 63.6% and the inhibition at 33 µM [3, 5] is reported as 89.2%. For the same molecule, the inhibition at 49 µM [3, 5] was 93.4%, the “effect on ROS production (in words)” value ([3]; compound 24 μM) was “moderate activity against ROS production” and the “Fluorescence (Average), AGE-mediated intracellular ROS production” value (from here on “Fluorescence (Average)”) ([3]; compound 24 μM) was 138.8. The “effect on ROS production (in words)” value ([3]; compound 33 μM) was “significantly impaired the ROS production”, the “Fluorescence (Average)” value ([3]; compound 33 μM) was 97.5 and the “effect on ROS production (in words)” value ([3]; compound 49 μM) was “inhibited the AGE-induced ROS production in rat hepatocytes in a remarkably significant manner”. The “Fluorescence (Average)” value ([3]; compound 49 μM) was 90.7, the “anti-glycation activity (in words)” value [2] was “significant anti-glycation activity” and the “effect on hepatocytes growth and proliferation (in words)” value ([4]; compound 24 μM) was “significant effect on the growth and proliferation”. For the same molecule, the “Percentage Inhibition (remaining growth inhibition of hepatocytes versus normal cells)” value ([4]; compound 24 μM, 24 hours) was 35.8%, the “Absorbance (Average), AGE-mediated diminished growth of the hepatocytes” value (“Absorbance (Average)” for short) ([4]; compound 24 μM, 24 hours) was 0.91 and the “effect on hepatocytes growth and proliferation (in words)” value ([4]; compound 33 μM, 24 hours) was “significantly restored the growth and proliferation”. The “Percentage Inhibition (remaining growth inhibition of hepatocytes versus normal cells)” value ([4]; compound 33 μM, 24 hours) was 34.3%, the “Absorbance (Average)” value ([4]; compound 33 μM, 24 hours) was 0.93 and the “effect on hepatocytes growth and proliferation (in words)” value ([4]; compound 49 μM) was “as effective as 33 μM concentration in reducing the toxicity of AGEs”. For the same molecule, the “Percentage Inhibition (remaining growth inhibition of hepatocytes versus normal cells)” value ([4]; compound 49 μM, 24 hours) was 22.2% and the “Absorbance (Average)” value ([4]; compound 49 μM, 24 hours) was 1.05.

In the case of `O=[N+]([O-])c1ccc2nc(-c3c(O)cc(O)cc3O)[nH]c2c1` [Compound 5, 2-(6-Nitro-1H-benzimidazol-2-yl)-1,3,5-benzenetriol], the cytotoxicity [1] is reported as 4%.

With `O=[N+]([O-])c1ccc2nc(-c3ccc(O)c(O)c3)[nH]c2c1` [Compound 6, 4-(6-Nitro-1H-benzimidazol-2-yl)-1,2-benzenediol] the cytotoxicity [1] was 3.4% and the “anti-glycation activity (in words)” value [2] was “significant anti-glycation activity”.

In the case of `O=[N+]([O-])c1ccc2nc(-c3ccc(O)cc3O)[nH]c2c1` [Compound 7, 4-(6-Nitro-1H-benzimidazol-2-yl)-1,3-benzenediol], the cytotoxicity (in vitro) is reported as 37.4% and the “anti-glycation activity (in words)” value [2] is reported as “significant anti-glycation activity”.

`Cc1ccc(-c2nc3cc([N+](=O)[O-])ccc3[nH]2)cc1` [Compound 8, 2-(4-Methylphenyl)-6-nitro-1H-benzimidazole] gave a cytotoxicity [1] of 59.2%.

In the case of `O=[N+]([O-])c1ccc(-c2nc3cc([N+](=O)[O-])ccc3[nH]2)cc1` [Compound 9, 6-Nitro-2-(4-nitrophenyl)-1H-benzimidazole], the cytotoxicity [1] is reported as 45.2%.

Molecule `O=[N+]([O-])c1ccc2nc(-c3ccc(O)cc3)[nH]c2c1` [Compound 10, 4-(6-Nitro-1H-benzimidazol-2-yl) phenol] has a cytotoxicity [1] of 3.6%.
